US20260183281A1, “PHARMACEUTICAL COMPOSITION COMPRISING A PRMT5 INHIBITOR AND AN EGFR INHIBITOR” (APEIRON THERAPEUTICS (HONG KONG) LTD., priority 2024, published 2026)

Legend:
[1] = system: NCI-H292 MTAP deleted cells; assay: Cell growth inhibition (CellTiter-Glo, 144 h), single agents and combinations, CI by Calcusyn; format: cell-based; conditions: for IC20 / IC50: Homo sapiens, NCI-H292, single agent; for Max Inh %: single agent
Method: NCI-H292 MTAP deleted cell line was purchased from Nanjing Cobioer Biotechnology Co., Ltd. The cells were cultured in a cell culture medium containing 90% RPMI1640 and 10% fetal bovine serum at 37° C. and 5% CO2. Experiments could only be performed on cells in the logarithmic growth phase.
Adjust the cell density in complete medium and seed the cells into 96-well culture plates. Incubate the plates at 37° C. with 5% CO2. Add the two test compounds to the plates using a serial dilution scheme. Continue incubation at 37° C. and 5% CO2 for 144 h. Thaw the CellTiter-Glo (CTG) reagent and equilibrate the plates to room temperature for ˜30 min. Add an equal volume of CTG reagent to each well, shake on an orbital shaker for 5 min to lyse the cells, and allow the signal to stabilize at room temperature for 20 min. Measure luminescence on a plate reader and record the data. Data analysis:
Cell growth inhibition (%)=100−(Lum test drug−Lum culture medium control)/(Lum solvent control−Lum culture medium control)×100%
Calcusyn was used to analyze the combination index (CI) values.

[2] = system: human lung cancer PDX model LD1-0025-200729; assay: In vivo pharmacodynamic study in PDX NU/NU mouse model of Osimertinib-resistant non-small cell lung cancer; parameters: species or system NU/NU mice; conditions: for Tumor volume (mm^3) Mean: each drug 10 mg/kg PO QD; for tumor growth inhibition (TGI) / statistical difference compared with the control group: each drug 10 mg/kg, PO, once daily; for tumor growth inhibition (TGI): 56-day study; for statistical difference compared with the control group: one-way ANOVA
Text: NU/NU mice, female, 6-8 weeks old, weighing approximately 18-22 g. They were purchased from Beijing Vital River Laboratory Animal Technology Co., Ltd. All experimental mice were kept in the SPF-level animal room of Xi'an LIDE and acclimated for at least 3 days in advance. The lung cancer model tumor-bearing mice were chosen. When a tumor grew to 800-1000 mm^3, the tumor was taken out under sterile conditions and passed it subcutaneously into NU/NU mice. When the average tumor volume reached about 150 mm^3 (100-200 mm^3), 18 tumor-bearing mice were chosen and randomly divided into 6 groups according to the tumor volume. The day of grouping was Day 0, and they were administered according to the following solution:
N: Number of animals; dose volume: 10 μL/g; PO: per os. Administer Osimertinib or Osimertinib solvent first, and administer compound A or compound A solvent after an interval of 1 hour.
The main purpose was to detect the growth inhibition effect or complete cure ability of the test drug compound A as a single drug or in combination with Osimertinib on the human lung cancer PDX model LD1-0025-200729.
Tumor volume and weight measurement of tumor-bearing mice: A vernier caliper was used to measure twice a week. The calculation equation for tumor volume is V=0.5 a×b^2, where a and b represent the major and minor diameters of the tumor, respectively;
Tumor growth inhibition: TGI (%)=[1−(Ti−T0)/(Vi−V0)]×100
Ti is the mean tumor volume after the start of administration in the compound group, T0 is the mean tumor volume at the first dose in the compound group, V0 is the mean tumor volume at the first dose in the vehicle control group, and Vi is the mean tumor volume after the start of administration in the vehicle control group.

[3] = administration time 0 days (grouping)

SMILES	IC20 [1]	IC50 [1]	Max Inh % [1]	Tumor volume (mm^3) Mean [2, 3]	Tumor volume (mm^3) Mean ([2]; administration time 4 days)	Tumor volume (mm^3) Mean ([2]; administration time 7 days)	Tumor volume (mm^3) Mean ([2]; administration time 11 days)	Tumor volume (mm^3) Mean ([2]; administration time 14 days)	Tumor volume (mm^3) Mean ([2]; administration time 18 days)	Tumor volume (mm^3) Mean ([2]; administration time 21 days)	Tumor volume (mm^3) Mean ([2]; administration time 25 days)	Tumor volume (mm^3) Mean ([2]; administration time 28 days)	Tumor volume (mm^3) Mean ([2]; administration time 32 days)	Tumor volume (mm^3) Mean ([2]; administration time 35 days)	Tumor volume (mm^3) Mean ([2]; administration time 39 days)	Tumor volume (mm^3) Mean ([2]; administration time 42 days)	Tumor volume (mm^3) Mean ([2]; administration time 46 days)	Tumor volume (mm^3) Mean ([2]; administration time 49 days)	Tumor volume (mm^3) Mean ([2]; administration time 53 days)	Tumor volume (mm^3) Mean ([2]; administration time 56 days)	further results
CN(C(=O)c1ccc2nc(N)c3cncn3c2c1)[C@@H]1COc2cc(C(F)(F)F)ccc21 [Compound A, (S)-4-amino-N-methyl-N-(6-(trifluoromethyl)-2,3-dihydrobenzofuran-3-yl)imidazo[1,5-a]quinoxaline-8-carboxamide]	10.7 nM	117 nM	71.2%	155.2 mm^3	179.8 mm^3	205.2 mm^3	228.6 mm^3	251.0 mm^3	274.5 mm^3	271.3 mm^3	315.2 mm^3	321.2 mm^3	318.3 mm^3	308.3 mm^3	288.3 mm^3	266.9 mm^3	278.7 mm^3	281.0 mm^3	283.7 mm^3	287.7 mm^3	TGI (%) ([1]; Compound A 3.20 nM, Osimertinib 0 nM): 11.4%; TGI (%) ([1]; Compound A 16.0 nM, Osimertinib 0 nM): 10.8%; TGI (%) ([1]; Compound A 80.0 nM, Osimertinib 0 nM): 45.6%; TGI (%) ([1]; Compound A 400 nM, Osimertinib 0 nM): 51.8%; TGI (%) ([1]; Compound A 2000 nM, Osimertinib 0 nM): 66.6%; TGI (%) ([1]; Compound A 10000 nM, Osimertinib 0 nM): 75.1%; Tumor volume (mm^3) Mean ([2]; administration time 57 days): 288.1 mm^3; tumor growth inhibition (TGI) [2]: 85.8%; statistical difference compared with the control group [2]: statistically significant difference
C[C@H](c1ccc(C(F)(F)F)cn1)N(C(=O)c1cc2c(cc1F)nc(N)c1cncn12)C1CC1 [Compound C]	9.6 nM	49.9 nM	64.6%	–	–	–	–	–	–	–	–	–	–	–	–	–	–	–	–	–	TGI (%) ([1]; Compound C 3.20 nM, Osimertinib 0.0 nM): 4.0%; TGI (%) ([1]; Compound C 16.0 nM, Osimertinib 0.0 nM): 23.7%; TGI (%) ([1]; Compound C 80.0 nM, Osimertinib 0.0 nM): 38.2%; TGI (%) ([1]; Compound C 400 nM, Osimertinib 0.0 nM): 49.5%; TGI (%) ([1]; Compound C 2000 nM, Osimertinib 0.0 nM): 61.0%; TGI (%) ([1]; Compound C 10000 nM, Osimertinib 0.0 nM): 60.4%
C=CC(=O)Nc1cc(Nc2nccc(-c3cn(C)c4ccccc34)n2)c(OC)cc1N(C)CCN(C)C [Osimertinib, reference compound]	18.6 nM	50.2 nM	91.1%	155.7 mm^3	185.9 mm^3	208.3 mm^3	232.2 mm^3	253.6 mm^3	288.4 mm^3	310.4 mm^3	369.2 mm^3	407.1 mm^3	439.2 mm^3	470.2 mm^3	501.3 mm^3	534.5 mm^3	589.4 mm^3	605.3 mm^3	633.7 mm^3	679.4 mm^3	TGI (%) ([1]; Osimertinib 4 nM, Compound A 0 nM): 16.0%; TGI (%) ([1]; Osimertinib 4.1 nM, Compound C 0 nM): 20.5%; TGI (%) ([1]; Osimertinib 12 nM, Compound A 0 nM): 13.4%; TGI (%) ([1]; Osimertinib 12.3 nM, Compound C 0 nM): 18.8%; TGI (%) ([1]; Osimertinib 37 nM, Compound A 0 nM): 35.4%; TGI (%) ([1]; Osimertinib 37.0 nM, Compound C 0 nM): 34.3%; TGI (%) ([1]; Osimertinib 111 nM, Compound A 0 nM): 70.6%; TGI (%) ([1]; Osimertinib 111.1 nM, Compound C 0 nM): 68.4%; TGI (%) ([1]; Osimertinib 333 nM, Compound A 0 nM): 81.8%; TGI (%) ([1]; Osimertinib 333.3 nM, Compound C 0 nM): 81.4%; TGI (%) ([1]; Osimertinib 1000 nM, Compound A 0 nM): 90.9%; TGI (%) ([1]; Osimertinib 1000.0 nM, Compound C 0 nM): 92.3%; Tumor volume (mm^3) Mean ([2]; administration time 57 days): 689.6 mm^3; tumor growth inhibition (TGI) [2]: 43.1%; statistical difference compared with the control group [2]: no statistically significant difference
